Tests used:
[1] = LNP particle size, polydispersity index and charge by Zeta Sizer; format: physicochemical; conditions: LNP lipid:DOPE:Cholesterol:DMG-PEG 35:20:43.5:1.5, firefly luciferase saRNA; for Polydispersity Index (PI) / Z-average (nm): N/P approx. 40/1
Protocol: Cationic lipids, DOPE, Cholesterol and DMG-PEG lipid were solubilized in ethanol or DMSO at a molar ratio of 35:20:43.5:1.5 and a concentration of 100:25:20:25 μg/μL for C12-200 or 170:25:20:25 μg/μL for the comparator lipids. Lipid nanoparticles (LNP) were prepared by targeting an N/P ratio of approximately 40/1 with saRNA. Briefly, the firefly luciferase saRNA of approximately 9659 nucleotides was diluted to 0.5 mg/mL in 5 mM citrate buffer, pH 4.5. Microfluidic mixer (Ignite from Precision Nanosystems, California, USA) was used to mix the lipid solution with the saRNA aqueous solution at a ratio of about 1:3 (vol/vol) with total flow rates above 10 ml/min. The ethanol was then removed, and the external buffer replaced with 10 mM TRIS-HCL, PH 7.4, by dialysis. Finally, the lipid nanoparticles were filtered through a 0.2 μm pore sterile filter. Lipid nanoparticle particle size was 50-150 nm diameter and polydispersity index (PI) of 0.1-0.4 as determined by Zeta Sizer (Malvern Panalytical, UK). The charge of the formulation was also measured by Zeta Sizer and ranged between 20 to −20 mV.

[2] = saRNA loading / encapsulation efficiency, Quant-IT RiboGreen assay; format: physicochemical; conditions: LNP lipid:DOPE:Cholesterol:DMG-PEG 35:20:43.5:1.5, firefly luciferase saRNA
Protocol: The saRNA loading in LNP formulations was quantified using a Quant-IT RiboGreen assay (Thermo Fisher Scientific, Waltham, Massachusetts, USA) as previously described. 14 samples were diluted tenfold in 1x Tris HCL-EDTA (TE) buffer (10 mM Tris-HCL, 1 mM EDTA, pH 7.5) with or without 2% (v/v) Triton X-100 (Sigma-Aldrich, Saint Louis, Missouri, USA). Standard solutions were also prepared in 1xTE with or without 2% (v/v) Triton X-100 to account for any variation in fluorescence. The assay was performed according to the manufacturer's protocol. Samples were loaded on a black 96-well plate and analysed for fluorescence on a microplate reader (Tecan Infinite® 200 PRO) at an excitation of 485 nm and emission at 528 nm. Encapsulation efficiency was calculated between 80-100%.

[3] = tested on: expression of the luciferase saRNA; assay: In vivo bioluminescent imaging after intramuscular injection of LNP-formulated luciferase saRNA; conditions: 1 μg LNP-formulated luciferase saRNA intramuscularly, female SWISS mice
Protocol: (§1) Female SWISS mice (6 weeks old) were purchased from Janvier Laboratories (Paris, France) and kept in individually ventilated cages with access to food and water ad libitum. Mice were anesthetized with isoflurane (Zoetis, Louvain-La-Neuve, Belgium) (5% for induction and 2% for maintenance) and intramuscularly injected with a total of 1 μg in 100 μL Tris-HCL (50 μL per leg) LNP-formulated luciferase saRNA (for each group n=7). The expression of the luciferase induced bioluminescence was measured via non-invasive In vivo bioluminescent imaging (In vivo Imaging System (IVIS) Lumina III, Perkin Elmer, Waltham, Massachusetts, USA), 10 minutes after subcutaneous injection of […] of D-luciferin (GoldBio, Saint Louis, Missouri, USA, #LUCK-1G) were measured in day 0 (before injection), day 1, day 3, day 5, day 7, day 10, day 15 and day 20.

[4] = Weight evolution of the animals following administration of LNPs; format: in vivo; conditions: female SWISS mice
Protocol: as §1

[5] = Day 1, 1 μg LNP-formulated saRNA intramuscularly
[6] = Day 3, 1 μg LNP-formulated saRNA intramuscularly
[7] = Day 5, 1 μg LNP-formulated saRNA intramuscularly
[8] = Day 7, 1 μg LNP-formulated saRNA intramuscularly
[9] = Day 10, 1 μg LNP-formulated saRNA intramuscularly
[10] = Day 15, 1 μg LNP-formulated saRNA intramuscularly
[11] = Day 20, 1 μg LNP-formulated saRNA intramuscularly

Compound	Zetapotential (mV) [1] [mV]	Polydispersity Index (PI) [1]	Z-average (nm) [1] [nm]	Encapsulation (%) [2] [%]	Bioluminescence expression of LNPs ([3]; Day 1)	Bioluminescence expression of LNPs ([3]; Day 3)	Bioluminescence expression of LNPs ([3]; Day 5)	Bioluminescence expression of LNPs ([3]; Day 7)	Bioluminescence expression of LNPs ([3]; Day 10)	Bioluminescence expression of LNPs ([3]; Day 15)	Bioluminescence expression of LNPs ([3]; Day 20)	Weight ([4]; Day 0) [g]	Weight [4, 5] [g]	Weight [4, 6] [g]	Weight [4, 7] [g]	Weight [4, 8] [g]	Weight [4, 9] [g]	Weight [4, 10] [g]	Weight [4, 11] [g]
CCCCCCC(CCCC)C(=O)OCCCCN(CCCCOC(=O)C(CCCC)CCCCCC)CCN(CCCCOC(=O)C(CCCC)CCCCCC)CCN1CCN(CCN(CCCCOC(=O)C(CCCC)CCCCCC)CCCCOC(=O)C(CCCC)CCCCCC)CC1 (stereo not drawn) [Compound 9-27, ((2-(4-(2-((2-(bis(4-((2-butyloctanoyl)oxy)butyl)amino)ethyl) (4-((2-butyloctanoyl)oxy)butyl)amino)ethyl)piperazin-1-yl)ethyl)azanediyl) bis(butane-4,1-diyl)bis(2-butyloctanoate)]	−10.65	0.18	65.27	93.93	4.09E+07	1.51E+09	1.35E+09	9.33E+08	2.88E+06	2.77E+05	1.87E+05	27.51	26.21	28.67	28.56	29.01	29.61	30.77	31.87
CCCCCCC(CCCC)C(=O)OCCCCCCN(CCCCCCOC(=O)C(CCCC)CCCCCC)CCN1CCN(CCN(CCCCCCOC(=O)C(CCCC)CCCCCC)CCCCCCOC(=O)C(CCCC)CCCCCC)CC1 (stereo not drawn) [Compound 9-34, ((piperazine-1,4-diylbis(ethane-2,1-diyl))bis(azanetriyl))tetrakis(hexane-6,1-diyl) tetrakis(2-butyloctanoate)]	−7.92	0.16	71.78	94.93	4.79E+07	7.26E+08	7.42E+08	9.12E+08	4.70E+07	1.43E+05	3.37E+04	27.77	26.14	28.33	28.51	28.49	28.97	30.24	31.51
CCCCCCCCCCCCCCOC(=O)CCN(CCC(=O)OCCCCCCCCCCCCCC)CCN(CCC(=O)OCCCCCCCCCCCCCC)CCN1CCN(CCN(CCC(=O)OCCCCCCCCCCCCCC)CCC(=O)OCCCCCCCCCCCCCC)CC1 [Comparator 2 (C2), reference compound]	8.70	0.16	96.53	97.61	2.19E+07	8.21E+07	2.21E+08	1.62E+08	2.27E+07	2.04E+05	9.42E+04	27.80	27.00	27.70	27.44	27.84	27.31	29.54	29.79
CCCCCCCCC(CCCCCC)C(=O)OCCCCN(CCCCOC(=O)C(CCCCCC)CCCCCCCC)CCN(CCCCOC(=O)C(CCCCCC)CCCCCCCC)CCN1CCN(CCN(CCCCOC(=O)C(CCCCCC)CCCCCCCC)CCCCOC(=O)C(CCCCCC)CCCCCCCC)CC1 (stereo not drawn) [Compound 9-30, ((2-(4-(2-((2-(bis(4-((2-hexyldecanoyl)oxy)butyl)amino)ethyl) (4-((2-hexyldecanoyl)oxy)butyl)amino)ethyl)piperazin-1-yl)ethyl)azanediyl) bis(butane-4,1-diyl)bis(2-hexyldecanoate)]	−8.56	0.17	115.36	94.22	2.31E+06	2.87E+07	6.18E+07	9.09E+07	2.84E+07	1.67E+05	1.67E+05	29.39	28.23	29.73	29.77	30.46	31.20	30.96	32.00
CCCCCCC(CCCC)C(=O)OCCN(CCOC(=O)C(CCCC)CCCCCC)CCN(CCOC(=O)C(CCCC)CCCCCC)CCN1CCN(CCN(CCOC(=O)C(CCCC)CCCCCC)CCOC(=O)C(CCCC)CCCCCC)CC1 (stereo not drawn) [Compound 9-26, ((2-(4-(2-((2-(bis(2-((2-butyloctanoyl)oxy)ethyl)amino)ethyl) (2-((2-butyloctanoyl)oxy)ethyl)amino)ethyl)piperazin-1-yl)ethyl)azanediyl) bis(ethane-2,1-diyl)bis(2-butyloctanoate)]	−18.67	0.28	100.07	92.78	8.16E+06	2.76E+08	6.92E+08	6.31E+08	2.23E+07	4.91E+05	7.78E+04	27.91	27.31	28.51	28.46	28.44	29.13	30.50	32.44
CCCCCCC(CCCC)C(=O)OCCCCN(CCCCOC(=O)C(CCCC)CCCCCC)CCN1CCN(CCN(CCCCOC(=O)C(CCCC)CCCCCC)CCCCOC(=O)C(CCCC)CCCCCC)CC1 (stereo not drawn) [Compound 9-33, ((piperazine-1,4-diylbis(ethane-2,1-diyl))bis(azanetriyl))tetrakis(butane-4,1-diyl) tetrakis(2-butyloctanoate)]	−13.70	0.22	86.24	92.26	3.79E+07	6.90E+08	1.45E+09	1.02E+09	5.76E+06	5.96E+05	1.21E+05	26.83	25.36	27.37	26.96	27.29	27.20	28.79	29.60
